{"source": "paper PMC11477294", "about": "“In Vitro Profiling of the Antiviral Peptide TAT-I24” (International Journal of Molecular Sciences, 2024)", "key": {"human PBMCs": {"tested_on": "human PBMCs", "experiment": "LPS-induced cytokine release in PBMCs (ELISA)", "type": "cell-based", "conditions": "three peptide concentrations, 0.25 µg/mL LPS, 24 h, duplicate, versus control without peptides", "procedure": "Isolation of PBMCs was performed by adding 3 mL blood on a 3 mL layer of Histopaque-1077 (Sigma Aldrich, Schnelldorf, Germany) and centrifuged at 400× g for 30 min at room temperature with the lowest brake and acceleration settings. After centrifugation, plasma was aspirated and the PBMC layer was transferred to a 15 mL conical centrifugation tube. Cells were resuspended in 10 mL PBS, followed by centrifugation at 250× g for 10 min. The cell pellet was resuspended in 5 mL PBS, followed by centrifugation at 250× g for 10 min for a total of three times. Finally, the pellet was resuspended in 1 mL cell culture medium supplemented with 10% FCS. Cells were then seeded in a 48-well plate at 2.5 × 10^5 cells/125 µL per well, treated with 125 µL peptide dilutions in the absence and presence of 0.25 µg/mL lipopolysaccharide (LPS) from Escherichia coli (Sigma-Aldrich, Schnelldorf, Germany) and incubated at 37 °C for 24 h. Supernatants were then collected for subsequent analysis by ELISA.\nELISA was performed using human tumor necrosis factor-α (TNF-α) and interleukin-6 (IL-6) ELISA MAX^TM De Luxe Sets from Biolegend (San Diego, CA, USA) according to the manufacturer’s instructions. Supernatants were diluted 1:5 for TNF-α and 1:500 for IL-6."}, "DiO-labeled MCMV": {"tested_on": "DiO-labeled MCMV", "experiment": "Entry of DiO-labeled MCMV (microscopy)", "type": "cell-based, mouse cytomegalovirus", "conditions": "10 µM peptide, NIH/3T3 cells, 120 min post-infection, MOI approximately 5", "procedure": "DiO labeling was performed by incubation of MCMV (2 × 10^7 pfu) with 5 µL of Vybrant™ DiO Cell-Labeling Solution in 300 µL cell culture medium supplemented with 10% FCS for 20 min at 37 °C. After that, the virus was precipitated overnight at 4 °C by addition of 600 µL autoclaved solution of polyethylene glycol/sodium chloride (30% (w/v) PEG-8000 (Sigma Aldrich, Schnelldorf, Germany), 10.5% NaCl (w/v) in PBS, followed by centrifugation on the next day for one hour at 1600× g at 4 °C. Supernatants were discarded, and the precipitated virus was resuspended in 500 µL cell culture medium supplemented with 10% FCS, aliquoted and stored at −80 °C.\nNIH/3T3 cells were seeded at a density of 2 × 10^4 cells/250 µL per well in ibiTreat 8-well chambers (ibidi, Germany) and allowed to attach overnight at 37 °C. On the next day, cells were treated with peptides and infected with DiO-labeled MCMV corresponding to an MOI of approximately 5 with the aid of centrifugal enhancement, twice at 800× g for 15 min. After 2 h of incubation, cells were washed twice with PBS and fixed with 5% formaldehyde for 1 h at room temperature. Then, cells were stained with DAPI for 15 min, as described above. […]"}}, "note": "Where a SMILES comes first, the peptide text is derived from it."}
{"smiles": "CC(C)C[C@H](NC(=O)[C@H](CS)NC(=O)[C@H](CCC(N)=O)NC(=O)[C@@H]1CCCN1C(=O)[C@@H]1CCCN1C(=O)[C@H](CCCNC(=N)N)NC(=O)[C@H](CCCNC(=N)N)NC(=O)[C@H](CCCNC(=N)N)NC(=O)[C@H](CCC(N)=O)NC(=O)[C@H](CCCNC(=N)N)NC(=O)[C@H](CCCNC(=N)N)NC(=O)[C@H](CCCCN)NC(=O)[C@H](CCCCN)NC(=O)[C@H](CCCNC(=N)N)NC(=O)CN)C(=O)N[C@@H](C)C(=O)N[C@@H](Cc1ccccc1)C(=O)N[C@@H](Cc1ccc(O)cc1)C(=O)N[C@@H](C)C(=O)N[C@@H](CS)C(=O)N[C@@H](Cc1ccccc1)C(=O)N[C@@H](CS)C(=O)O", "note": "[TAT-I24] (H-GRKKRRQRRRPPQCLAFYACFC-OH)", "values": [{"measurement": "LPS-induced IL-6 release", "setting": "human PBMCs", "result": "No significant differences"}, {"measurement": "LPS-induced TNF-α release", "setting": "human PBMCs", "result": "No significant differences"}, {"measurement": "organization of fluorescent signal of DiO-labeled MCMV in cells", "setting": "DiO-labeled MCMV", "result": "less perinuclear organization and was more dispersed in the whole cytoplasm"}]}
